In ChEMBL document CHEMBL4184120, “Target ROS to induce apoptosis and cell cycle arrest by 5,7-dimethoxy-1,4-naphthoquinone derivative” (Bioorg Med Chem Lett, 2018):

What was measured:
HeLa = assay: Antiproliferative activity against human HeLa cells after 48 hrs by MTT assay; assay type: functional, cell-based
HepG2 = assay: Antiproliferative activity against human HepG2 cells after 48 hrs by MTT assay; assay type: functional, cell-based; settings: HepG2, 48 h
A549 = assay: Antiproliferative activity against human A549 cells after 48 hrs by MTT assay; assay type: functional, cell-based; settings: A549, 48 h
NCI-H460 = assay: Antiproliferative activity against human NCI-H460 cells after 48 by hrs MTT assay; assay type: functional, cell-based
HL-60 = assay: Antiproliferative activity against human HL60 cells after 48 hrs by MTT assay; assay type: functional, cell-based; settings: HL-60, 48 h
K562 = assay: Antiproliferative activity against human K562 cells after 48 hrs by MTT assay; assay type: functional, cell-based; settings: K562, 48 h
WI-38 = assay: Antiproliferative activity against human WI38 cells after 48 hrs by MTT assay; assay type: cell-based; settings: WI-38, 48 h
[1] = Selectivity index, ratio of IC50 for human WI38 cells to IC50 for human HL60 cells; assay type: toxicity; settings: WI38 cells and HL60 cells, read-out: Ratio IC50

Row | Compound | IC50 (HeLa) | IC50 (HepG2) | IC50 (A549) | IC50 (NCI-H460) | IC50 (HL-60) | IC50 (K562) | IC50 (WI-38) | selectivity ratio [1]
1 | COc1cc(OC)c2c(c1)C(=O)C(O)=C(CCc1ccc(Br)cc1)C2=O | > 100 µM | 73.2 µM | > 100 µM | > 100 µM | > 100 µM | – | – | –
2 | CCC1=C(O)C(=O)c2cc(OC)cc(OC)c2C1=O | 96.5 µM | > 100 µM | > 100 µM | > 100 µM | > 100 µM | – | – | –
3 | COc1cc(OC)c2c(c1)C(=O)C(O)=CC2=O | > 100 µM | > 100 µM | > 100 µM | > 100 µM | > 100 µM | – | – | –
4 | O=c1[nH]cc(F)c(=O)[nH]1 [FLUOROURACIL] | 30.2 µM | 36.6 µM | – | – | 67.2 µM | – | – | –
5 | COC1=C(CCc2ccc(OC)cc2)C(=O)c2c(OC)cc(OC)cc2C1=O | 35 µM | 47.5 µM | > 100 µM | 37.1 µM | 52 µM | – | – | –
6 | COc1cc(OC)c2c(c1)C(=O)C(Cl)=C(CCC1CCCCC1)C2=O | 21.2 µM | 41.4 µM | 63 µM | 61 µM | 9.2 µM | 29.9 µM | 34.2 µM | 3.7
7 | COc1cc(OC)c2c(c1)C(=O)C(O)=C(CCc1ccc(N(CCCl)CCCl)cc1)C2=O | > 100 µM | 81.4 µM | > 100 µM | > 100 µM | 26.1 µM | – | – | –
8 | COc1cc(OC)c2c(c1)C(=O)C(O)=C(CCc1ccccc1)C2=O | > 100 µM | 95.7 µM | > 100 µM | > 100 µM | 96.1 µM | – | – | –
9 | COc1cc(OC)c2c(c1)C(=O)C(O)=C(CCC1CCCCC1)C2=O | 79.4 µM | 49.9 µM | 78.5 µM | 86.2 µM | 95.8 µM | – | – | –
10 | CCCCCCCCCCCCC1=C(O)C(=O)c2cc(OC)cc(OC)c2C1=O | > 100 µM | > 100 µM | > 100 µM | > 100 µM | 86.7 µM | – | – | –
11 | CCCCCCCCC1=C(O)C(=O)c2cc(OC)cc(OC)c2C1=O | > 100 µM | > 100 µM | > 100 µM | > 100 µM | > 100 µM | – | – | –
